According to the NIST ThermoML archive (doi:10.1021/je900550v):

Settings: 101.33 kPa, Liquid; for speed of sound: Sing-around technique in a fixed-path interferometer; for mass density: Vibrating tube method

CC(=O)[O-].C[NH2+]CCO [N-methyl-2-hydroxyethylammonium acetate]
Settings | mass density [kg/m3] | speed of sound [m/s] | viscosity [mPa·s]
308.15 K | 1094.83 | 1769.3 | –
308.4 K | 1094.68 | 1768.7 | –
308.65 K | 1094.52 | 1768 | –
308.9 K | 1094.37 | 1767.4 | –
309.15 K | 1094.22 | 1766.8 | –
309.4 K | 1094.07 | 1766.1 | –
309.65 K | 1093.92 | 1765.5 | –
309.9 K | 1093.77 | 1764.8 | –
310.15 K | 1093.62 | 1764.2 | –
310.4 K | 1093.47 | 1763.6 | –
310.65 K | 1093.31 | 1762.9 | –
310.91 K | 1093.16 | 1762.3 | –
311.16 K | 1093.01 | 1761.7 | –
311.4 K | 1092.85 | 1761 | –
311.65 K | 1092.7 | 1760.4 | –
311.91 K | 1092.55 | 1759.7 | –
312.16 K | 1092.4 | 1759.1 | –
312.41 K | 1092.24 | 1758.5 | –
312.66 K | 1092.09 | 1757.8 | –
312.91 K | 1091.94 | 1757.2 | –
313.15 K | – | – | 46.16
313.16 K | 1091.78 | 1756.5 | –
313.4 K | 1091.63 | 1755.9 | –
313.66 K | 1091.48 | 1755.2 | –
313.9 K | 1091.32 | 1754.6 | –
314.15 K | 1091.17 | 1753.9 | –
314.4 K | 1091.02 | 1753.3 | –
314.65 K | 1090.87 | 1752.6 | –
314.9 K | 1090.71 | 1752 | –
315.15 K | 1090.56 | 1751.3 | –
315.41 K | 1090.41 | 1750.7 | –
315.65 K | 1090.26 | 1750 | –
315.91 K | 1090.1 | 1749.4 | –
316.16 K | 1089.95 | 1748.7 | –
316.41 K | 1089.79 | 1748.1 | –
316.66 K | 1089.64 | 1747.4 | –
316.91 K | 1089.49 | 1746.8 | –
317.16 K | 1089.33 | 1746.1 | –
317.4 K | 1089.18 | 1745.5 | –
317.66 K | 1089.02 | 1744.8 | –
317.91 K | 1088.87 | 1744.2 | –
318.15 K | – | – | 37.28
318.16 K | 1088.72 | 1743.5 | –
318.41 K | 1088.56 | 1742.8 | –
318.65 K | 1088.41 | 1742.2 | –
318.9 K | 1088.26 | 1741.5 | –
319.16 K | 1088.1 | 1740.9 | –
319.41 K | 1087.94 | 1740.2 | –
319.65 K | 1087.79 | 1739.6 | –
319.91 K | 1087.64 | 1738.9 | –
320.16 K | 1087.48 | 1738.2 | –
320.41 K | 1087.33 | 1737.6 | –
320.65 K | 1087.17 | 1736.9 | –
320.91 K | 1087.02 | 1736.3 | –
321.15 K | 1086.86 | 1735.6 | –
321.41 K | 1086.71 | 1735 | –
321.66 K | 1086.55 | 1734.3 | –
321.9 K | 1086.4 | 1733.6 | –
322.15 K | 1086.24 | 1733 | –
322.41 K | 1086.08 | 1732.3 | –
322.65 K | 1085.93 | 1731.7 | –
322.91 K | 1085.77 | 1731 | –
323.15 K | – | – | 29.06
323.16 K | 1085.62 | 1730.3 | –
323.41 K | 1085.46 | 1729.7 | –
323.65 K | 1085.31 | 1729 | –
323.91 K | 1085.15 | 1728.3 | –
324.16 K | 1085 | 1727.7 | –
324.41 K | 1084.84 | 1727 | –
324.65 K | 1084.68 | 1726.4 | –
324.9 K | 1084.53 | 1725.7 | –
325.16 K | 1084.37 | 1725 | –
325.4 K | 1084.22 | 1724.4 | –
325.66 K | 1084.06 | 1723.7 | –
325.9 K | 1083.9 | 1723.1 | –
326.16 K | 1083.75 | 1722.4 | –
326.41 K | 1083.59 | 1721.7 | –
326.66 K | 1083.43 | 1721.1 | –
326.9 K | 1083.28 | 1720.4 | –
327.16 K | 1083.12 | 1719.7 | –
327.4 K | 1082.97 | 1719.1 | –
327.66 K | 1082.81 | 1718.4 | –
327.9 K | 1082.65 | 1717.7 | –
328.15 K | 1082.49 | 1717.1 | –
328.41 K | 1082.34 | 1716.4 | –
328.66 K | 1082.18 | 1715.8 | –
328.9 K | 1082.03 | 1715.1 | –
329.16 K | 1081.87 | 1714.4 | –
329.4 K | 1081.71 | 1713.8 | –
329.65 K | 1081.55 | 1713.1 | –
329.9 K | 1081.4 | 1712.5 | –
330.16 K | 1081.24 | 1711.8 | –
330.41 K | 1081.08 | 1711.1 | –
330.66 K | 1080.92 | 1710.5 | –
330.91 K | 1080.77 | 1709.8 | –
331.16 K | 1080.61 | 1709.1 | –
331.41 K | 1080.45 | 1708.5 | –
331.66 K | 1080.29 | 1707.8 | –
331.91 K | 1080.13 | 1707.1 | –
332.16 K | 1079.97 | 1706.5 | –
332.41 K | 1079.82 | 1705.8 | –
332.66 K | 1079.66 | 1705.1 | –
332.91 K | 1079.5 | 1704.5 | –
333.16 K | 1079.34 | 1703.8 | –
333.41 K | 1079.19 | 1703.1 | –
333.66 K | 1079.03 | 1702.5 | –
333.91 K | 1078.87 | 1701.8 | –
334.16 K | 1078.71 | 1701.2 | –
334.41 K | 1078.55 | 1700.5 | –
334.66 K | 1078.39 | 1699.8 | –
334.91 K | 1078.23 | 1699.2 | –
335.16 K | 1078.08 | 1698.5 | –
335.41 K | 1077.92 | 1697.9 | –
335.66 K | 1077.76 | 1697.2 | –
335.91 K | 1077.6 | 1696.6 | –
336.16 K | 1077.44 | 1696 | –
336.41 K | 1077.28 | 1695.3 | –
336.66 K | 1077.12 | 1694.7 | –
336.9 K | 1076.96 | 1694 | –
337.16 K | 1076.8 | 1693.4 | –
337.4 K | 1076.63 | 1692.8 | –
337.66 K | 1076.47 | 1692.2 | –
337.9 K | 1076.32 | 1691.7 | –
338.15 K | 1076.16 | 1691.3 | –
